Experimental data: paper PMC4805082, “Seizure control by decanoic acid through direct AMPA receptor inhibition” (Brain, 2015)

Experiments:
[1] = tested on: epileptiform activity (burst discharges) in hippocampal slices induced by low-Mg2+; assay: In vitro seizure model, low-Mg2+ induced epileptiform activity in hippocampal slices; format: cell-based, rat; conditions: 10 mM; low magnesium
Description: (§1) Male Sprague-Dawley rats (postnatal Days 19–30) were sacrificed using an overdose of isoflurane or pentobarbitone (500 mg/kg). After decapitation the brain was rapidly removed, the hippocampus or entorhinal cortex-hippocampus slices was dissected from the brain and […] thick transverse slices were prepared on a VT1200S vibratome (Leica) or Vibratome (Vibratome® 1500 sectioning system, Intracell). The slicing was performed in ice-cold sucrose-based solution containing (in mM): 75 sucrose, 87 NaCl, 22 glucose, 2.5 KCl, 7 MgCl2, 1.25 NaH2PO4, 0.5 CaCl2 and 25 NaHCO3, pH 7.4, 315–330 mOsm equilibrated with 95% O2 plus 5% CO2. The slices were then stored in a continuously oxygenated humidified interface holding chamber containing oxygenated artificial CSF (in mM): 120 NaCl, 22 glucose, 2.5 KCl, 1.3 MgSO4, 1 NaH2PO4, 25 NaHCO3 and 2.5 CaCl2, pH 7.4 296 mOsm, where they recovered for at least 1 h before use.
During the experiment, slices were transferred from the interface chamber into a submerged recording chamber, designed to optimize wash-in and wash-out of drugs, and continuously perfused using gravity feed at 3–6 ml/min with prewarmed (36°C) oxygenated artificial CSF (95% O2, 5% CO2). Field potentials were recorded with a glass microelectrode (1–2 MΩ) filled with artificial CSF solution placed in stratum radiatum of CA1 and were filtered at 1 kHz and digitized at 2 kHz (using an npi EXT-02F extracellular amplifier recorded with WinEDR software). In the pentylenetetrazol model, the epileptiform (paroxysmal) activity was induced by application of pentylenetetrazol (2 mM) to the perfusate and [K^+] was increased (to 6 mM); in low-Mg^2+ model, the epileptiform activity was elicited by using Mg^2+-free artificial CSF. Once the frequency of the paroxysmal activity was stable for at least 10 min, compounds were applied to the perfusate for the following 40 min, and washed out for a remaining 20 min. The anticonvulsant effects were evaluated by measuring the change in the frequency of the discharges at minute intervals. […]

[2] = tested on: epileptiform activity (burst discharges) in hippocampal slices induced by pentylenetetrazol; assay: In vitro seizure model, pentylenetetrazol-induced epileptiform activity in hippocampal slices; format: cell-based, rat; conditions: pentylenetetrazol 2 mM, K+ 6 mM
Description: as §1
During the experiment, slices were transferred from the interface chamber into a submerged recording chamber, designed to optimize wash-in and wash-out of drugs, and continuously perfused using gravity feed at 3–6 ml/min with prewarmed (36°C) oxygenated artificial CSF (95% O2, 5% CO2). Field potentials were recorded with a glass microelectrode (1–2 MΩ) filled with artificial CSF solution placed in stratum radiatum of CA1 and were filtered at 1 kHz and digitized at 2 kHz (using an npi EXT-02F extracellular amplifier recorded with WinEDR software). In the pentylenetetrazol model, the epileptiform (paroxysmal) activity was induced by application of pentylenetetrazol (2 mM) to the perfusate and [K^+] was increased (to 6 mM); in low-Mg^2+ model, the epileptiform activity was elicited by using Mg^2+-free artificial CSF. Once the frequency of the paroxysmal activity was stable for at least 10 min, compounds were applied to the perfusate for the following 40 min, and washed out for a remaining 20 min. The anticonvulsant effects were evaluated by measuring the change in the frequency of the discharges at minute intervals. The discharge frequency was then averaged every 5 min during the experiment and normalized to baseline. The compounds applied in this study included: 1% dimethyl sulphoxide (DMSO), acetone (10 mM, Sigma), (±)-sodium 3-hydroxybutyrate (BHB) (10 mM, Sigma), and decanoic acid (1 mM, Alfa Aesar Pty). Acetone and decanoic acids were prepared as 1000× stocks in DMSO, and BHB was prepared as 100× stock. Stocks were dissolved in artificial CSF to achieve their final concentrations during experiments, and where applicable, experiments included constant levels of DMSO.

AMPA receptor GluA2/3 = target: T1, AMPA receptor GluA2/3 (Homo sapiens, UniProt P42262+P42263); assay: Two-electrode voltage clamp, AMPA receptor GluA2/3 expressed in Xenopus oocytes; format: cell-based; conditions: for AMPA receptor currents: compound 1 mM, currents elicited by 100 µM L-glutamate, −50 mV
T1 construct: expressed in transfected cells; host or cells: Xenopus laevis oocytes injected with cRNA (1:1 mix)
Description: The AMPA receptor (flip isoform) cDNAs inserted in a SP6 polymerase expression vector (pSP6T) were a generous gift from Prof. Ralf Schoepfer (NPP, UCL). […] AMPA receptor cRNAs were mixed in a nominal 1:1 ratio and ∼5 ng was injected per oocyte.
(§2) Xenopus laevis oocytes were purchased from the European Xenopus Resource Centre, University of Portsmouth. Stage V to VI oocytes were mechanically dissected and then subjected to gentle shaking for ∼30–50 min at room temperature with modified Barth’s solution (in mM): 88 NaCl, 1 KCl, 2.4 NaHCO3, 0.82 MgCl2, 0.77 CaCl2, 15 Tris-Cl, adjusted to pH 7.4 with NaOH (Sigma-Aldrich), supplemented with 50 IU/ml penicillin and 50 µg/ml streptomycin (Invitrogen) and 50 µg/ml tetracycline (Sigma-Aldrich) and 1% collagenase (type 1A). Healthy oocytes were manually defolliculated and the injections of cRNA for homomeric subunits alone (GluA1), or heteromeric mixtures of two subunits together (GluA1/GluA2 or GluA2/GluA3) were made using an automated Drummond Nanoinject II injector. The oocytes were then incubated at 17°C in modified Barth’s solution for at least 48 h before use in electrophysiological recordings.
Experiments were performed at room temperature (∼21–23°C). […] Current and voltage electrodes were filled with 300 mM KCl and made from thin-walled borosilicate glass (GC150TF-7.5, Harvard Apparatus) using a PC-10 electrode puller (Narashige Instruments) and had resistances of 0.5–2 MΩ. […] Compounds were dissolved in distilled water or DMSO and dissolved in bathing solution to achieve their final concentrations during experiments, and were applied under gravity flow during the experiment by using a multi-valve perfusion system (VC3-8C, ALA Scientific Instruments). The bath solutions were perfused at a rate of 10 ml/min. […] Data acquisition was performed using the Windows PC-based program, WinEDR v3.0.6 (John Dempster, University of Strathclyde, UK).
Statistical analysis was performed using ANOVA with Tukey post hoc test, paired t-test or unpaired t-test.

AMPA receptor = tested on: AMPA receptor; design: method as in Arai, 2001; conditions: 50 µM; ref Arai, 2001; cited from earlier work
AMPA receptor GluA1 = target: T2, AMPA receptor GluA1 (Homo sapiens, UniProt P42261); assay: Two-electrode voltage clamp, homomeric GluA1 AMPA receptor expressed in Xenopus oocytes; format: cell-based; conditions: glutamate 100 µM
T2 construct: expressed in transfected cells; host or cells: Xenopus laevis oocytes injected with cRNA
Description: The AMPA receptor (flip isoform) cDNAs inserted in a SP6 polymerase expression vector (pSP6T) were a generous gift from Prof. Ralf Schoepfer (NPP, UCL). RNA was transcribed in vitro from MluI linearized transcripts using the SP6 Promega RiboMAX® RNA synthesis kit according to manufacturer’s protocols except for the addition of 0.75 mM capping nucleotide m^7G(5’)ppp(5’)G (Promega) and 1.6 mM GTP. cRNA concentrations and integrity were estimated by the intensity of fluorescence bands in RNA denaturating gels. AMPA receptor cRNAs were mixed in a nominal 1:1 ratio and ∼5 ng was injected per oocyte.
as §2
Experiments were performed at room temperature (∼21–23°C). An oocyte was placed in a recording chamber (0.3–0.5 ml volume) and perfused with ND96 solution (96 mM NaCl, 2 mM KCl, 1.8 mM CaCI2, 1 mM MgCl2, 5 mM HEPES, with pH adjusted to 7.5). Current and voltage electrodes were filled with 300 mM KCl and made from thin-walled borosilicate glass (GC150TF-7.5, Harvard Apparatus) using a PC-10 electrode puller (Narashige Instruments) and had resistances of 0.5–2 MΩ. Oocytes were voltage-clamped to a holding potential of −50 mV or −60 mV using a Turbo TEC-03 amplifier (npi electronics). […]

[3] = humans; ref Rogawski and Hanada, 2013; cited from earlier work
field EPSP = tested on: field EPSP; design: method as in Ceolin et al., 2012; conditions: at 30–50 nM; ref Ceolin et al., 2012; cited from earlier work
[4] = tested on: epileptiform activity (burst discharges) in hippocampal slices induced by pentylenetetrazol; design: method as in Chang et al., 2012, 2013; conditions: 1 mM; ref Chang et al., 2012, 2013; cited from earlier work
[5] = tested on: epileptiform activity (burst discharges) in hippocampal slices induced by low-Mg2+; design: method as in Chang et al., 2012, 2013; conditions: 1 mM; ref Chang et al., 2012, 2013; cited from earlier work

T1 sequence (P42262 22-883 isoform P42262-2 limits assumed): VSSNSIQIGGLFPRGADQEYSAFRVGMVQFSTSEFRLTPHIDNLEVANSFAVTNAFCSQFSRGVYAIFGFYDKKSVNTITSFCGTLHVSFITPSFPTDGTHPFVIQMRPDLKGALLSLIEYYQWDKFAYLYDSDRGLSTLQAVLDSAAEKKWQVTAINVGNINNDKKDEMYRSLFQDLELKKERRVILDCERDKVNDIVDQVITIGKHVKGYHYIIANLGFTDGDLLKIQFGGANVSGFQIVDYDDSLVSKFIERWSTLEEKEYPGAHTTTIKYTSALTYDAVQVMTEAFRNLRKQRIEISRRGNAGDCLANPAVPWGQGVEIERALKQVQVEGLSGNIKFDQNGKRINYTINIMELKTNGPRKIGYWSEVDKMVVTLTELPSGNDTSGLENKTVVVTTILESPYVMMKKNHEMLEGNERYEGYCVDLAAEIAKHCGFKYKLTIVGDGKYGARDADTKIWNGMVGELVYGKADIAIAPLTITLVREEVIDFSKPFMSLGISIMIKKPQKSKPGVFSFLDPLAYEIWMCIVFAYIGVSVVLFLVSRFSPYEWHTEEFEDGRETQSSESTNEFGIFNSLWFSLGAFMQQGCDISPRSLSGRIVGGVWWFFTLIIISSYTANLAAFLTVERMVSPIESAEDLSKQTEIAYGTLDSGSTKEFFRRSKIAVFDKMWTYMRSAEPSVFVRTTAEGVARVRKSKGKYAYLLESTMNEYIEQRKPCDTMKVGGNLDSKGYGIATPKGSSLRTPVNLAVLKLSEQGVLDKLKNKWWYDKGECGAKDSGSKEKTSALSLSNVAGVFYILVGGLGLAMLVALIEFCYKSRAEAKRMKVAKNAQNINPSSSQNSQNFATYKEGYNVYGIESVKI
T1 sequence (P42263 29-894 isoform P42263-2 limits assumed): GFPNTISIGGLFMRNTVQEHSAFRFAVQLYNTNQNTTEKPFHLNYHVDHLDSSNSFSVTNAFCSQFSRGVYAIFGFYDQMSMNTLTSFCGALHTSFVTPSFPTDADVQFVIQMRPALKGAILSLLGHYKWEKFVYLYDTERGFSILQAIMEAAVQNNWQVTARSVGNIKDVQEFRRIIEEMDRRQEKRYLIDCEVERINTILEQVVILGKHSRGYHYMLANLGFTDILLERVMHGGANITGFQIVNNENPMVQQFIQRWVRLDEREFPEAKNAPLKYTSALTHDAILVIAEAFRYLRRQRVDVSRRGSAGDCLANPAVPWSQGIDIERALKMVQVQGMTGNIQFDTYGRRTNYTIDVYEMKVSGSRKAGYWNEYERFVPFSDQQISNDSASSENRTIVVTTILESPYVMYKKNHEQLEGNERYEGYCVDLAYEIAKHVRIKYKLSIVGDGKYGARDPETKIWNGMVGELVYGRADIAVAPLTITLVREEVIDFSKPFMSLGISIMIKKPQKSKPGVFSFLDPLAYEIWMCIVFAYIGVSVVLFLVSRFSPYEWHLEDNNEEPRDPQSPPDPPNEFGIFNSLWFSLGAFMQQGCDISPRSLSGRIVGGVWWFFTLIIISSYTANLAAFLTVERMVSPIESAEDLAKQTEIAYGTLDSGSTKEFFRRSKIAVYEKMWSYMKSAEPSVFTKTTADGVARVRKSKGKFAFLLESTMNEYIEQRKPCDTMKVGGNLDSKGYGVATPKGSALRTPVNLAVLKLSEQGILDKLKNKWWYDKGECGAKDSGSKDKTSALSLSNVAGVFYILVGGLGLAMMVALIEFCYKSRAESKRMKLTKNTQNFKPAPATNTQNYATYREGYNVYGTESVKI
T2 sequence (P42261 19-906 isoform P42261-2 limits assumed): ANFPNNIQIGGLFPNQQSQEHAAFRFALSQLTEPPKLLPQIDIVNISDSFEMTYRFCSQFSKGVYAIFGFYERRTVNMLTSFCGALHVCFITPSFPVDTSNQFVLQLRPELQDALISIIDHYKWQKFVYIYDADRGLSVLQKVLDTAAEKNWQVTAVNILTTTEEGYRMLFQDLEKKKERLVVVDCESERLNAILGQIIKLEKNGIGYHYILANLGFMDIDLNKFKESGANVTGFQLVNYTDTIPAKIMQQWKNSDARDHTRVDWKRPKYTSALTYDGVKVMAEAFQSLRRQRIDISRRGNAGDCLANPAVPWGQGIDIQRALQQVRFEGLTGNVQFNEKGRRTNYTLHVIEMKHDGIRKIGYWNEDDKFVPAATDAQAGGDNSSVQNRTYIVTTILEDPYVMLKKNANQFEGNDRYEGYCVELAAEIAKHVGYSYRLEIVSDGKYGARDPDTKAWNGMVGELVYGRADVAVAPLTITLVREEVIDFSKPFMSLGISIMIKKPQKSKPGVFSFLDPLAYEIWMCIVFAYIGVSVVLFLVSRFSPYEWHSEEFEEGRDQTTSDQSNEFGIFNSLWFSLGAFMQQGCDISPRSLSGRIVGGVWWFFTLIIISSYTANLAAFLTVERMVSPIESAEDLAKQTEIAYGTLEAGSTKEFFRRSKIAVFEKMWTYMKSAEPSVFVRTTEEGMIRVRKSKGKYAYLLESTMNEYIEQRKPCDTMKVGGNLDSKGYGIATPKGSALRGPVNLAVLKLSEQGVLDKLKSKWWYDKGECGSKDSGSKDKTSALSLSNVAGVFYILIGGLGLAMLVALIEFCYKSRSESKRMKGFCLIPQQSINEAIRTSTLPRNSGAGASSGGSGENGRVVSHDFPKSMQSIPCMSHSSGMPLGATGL

CC(O)CC(=O)O (racemic) [β-hydroxybutyrate, (±)-sodium 3-hydroxybutyrate]
effect on epileptiform activity [1]: did not have any effect
effect on epileptiform activity ([2]; 10 mM): did not have any effect

CCCCC(C)CCC(=O)O (stereo not drawn) [4-methyloctanoic acid]
IC50 (AMPA receptor GluA2/3; glutamate 100 µM, read-out: IC50, inhibition of glutamate-induced AMPA receptor current): 840 ± 40 µM

CC1=NN=C(c2ccc(N)cc2)c2cc3c(cc2C1)OCO3 [GYKI 52466, reference compound]
effect on epileptiform activity ([2]; 50 µM): completely blocked
decrease in AMPA receptor responses (AMPA receptor): 60–70%

CC(C)=O [acetone]
effect on epileptiform activity [1]: did not have any effect
effect on epileptiform activity ([2]; 10 mM): did not have any effect

CCCCCCCC(=O)O [octanoic acid, reference compound]
AMPA receptor currents (AMPA receptor GluA2/3): no effect
effect on homomeric GluA1 currents (AMPA receptor GluA1): no effect

N#Cc1ccccc1-c1cc(-c2ccccn2)cn(-c2ccccc2)c1=O [perampanel]
free concentrations observed to be efficacious [3]: 30 to 50 nM
reduction in field EPSP slope (field EPSP): ~20%

CCCC(CCC)C(=O)O [valproic acid]
effect on seizure activity [4]: only modifies seizure activity
AMPA receptor currents (AMPA receptor GluA2/3): no action
effect on seizure activity [5]: only modifies seizure activity
effect on homomeric GluA1 currents (AMPA receptor GluA1): no effect
